Here are results for 4 compounds from patent EP0184861A1, “Derivatives of the 3-mercapto-2-oxo-1-pyrrolidinacetic acid, process for their preparation and pharmaceutical compositions containing them” (PROTER S.p.A., priority 1984, dated 1986).

One data set deals with 4% mucin suspension. The data set can be described thus: mucolithic activity "in vitro" with a 4% mucin suspension (viscosity reduction). It is filed as biochemical. The following applies: molar concentration 0,012 M. An excerpt:
The 3-mercapto-2-oxo-1-pyrrolidinyl acetic acid (V) and its derivatives are endowed with interesting phamacological properties; particularly they are endowed with a relevant mucolithic, expectorant and anti-cough activity and moreover show a very low toxicity.

Data set [1] deals with fluid of the respiratory tract. The data set can be described thus: expectorant activity: fluorescein elimination in the fluid of the respiratory tract. Format: in vivo. The following applies: in comparison to the controls; dose 1 mM/kg/os.
Data set [2] in a line: acute toxicity in the mouse. The following applies: in vivo, male and female mouse. An excerpt: (§1) Thanks to their pharmacological properties and to the absence of toxicity, the compounds of formula I and their possible pharmaceutically acceptable salts may be used as drugs in the treatment of diseases of the respiratory tract.
Data set [3] is described as follows: acute toxicity in the rat. The following applies: in vivo, male and female rat.
Excerpt: as §1

[4] abbreviates: tested after a suitable hydrolysis of the thioester.

In turn, `CC(=O)N[C@@H](CS)C(=O)O` [N-acetyl-L-cysteine, reference compound] registered a viscosity reduction with 4% mucin suspension of 12.69%. In addition, the “increases of escretion of the colouring matter” value (shortened to “increases”) in data set [1] is recorded as 29.63%.
`O=C(O)CN1CCC(S)C1=O` (stereo not drawn) [V, 3-mercapto-2-oxo-1-pyrrolidinyl acetic acid] registered a viscosity reduction with 4% mucin suspension of 20.95%. Besides, in data set [1], the “increases” value was 52.92%. Moreover, the 50% lethal dose (LD50) in data set [2] (ip) is greater than 2000 mg/kg; in data set [2] (oral route), greater than 3000 mg/kg; in data set [3] (ip), greater than 1500 mg/kg; in data set [3] (oral route) it was greater than 5000 mg/kg.
`O=C(O)CN1CCC(SC(=O)c2cccs2)C1=O` (stereo not drawn) [VI, 3-(2-thenoylthio)-2-oxo-1-pyrrolidinyl acetic acid] had a viscosity reduction in the data set with 4% mucin suspension (setting [4]) of 18.22%. Further, in data set [1], the “increases” value is listed as 54.26%. Besides, the LD50 was greater than 2000 mg/kg in data set [2] (ip), greater than 3000 mg/kg in data set [2] (oral route), greater than 1500 mg/kg in data set [3] (ip) and greater than 5000 mg/kg in data set [3] (oral route).
Turning to `O=C(O)CN1CCC(SC(=O)c2ccccc2)C1=O` (stereo not drawn) [VII, 3-benzoylthio-2-oxo-l-pyrrolidinyl acetic acid], in the data set with 4% mucin suspension (setting [4]), the viscosity reduction is recorded as 16.13%.
